# Experimental data reported in patent publication US6537545B1, “Use of corneal hardening agents in enzymeorthokeratology” (ISTA Pharmaceuticals, Inc., priority 1998, dated 2003).
# What was measured:
# [1] = system: eyes of myopic human subjects; assay: Mild myopia study, group I: 50 IU hyaluronidase, corrective lenses, 3% glyceraldehyde (Example 9); format: in vivo; details: 50 IU hyaluronidase and corrective lenses
# Excerpt: (§1) Given the favorable results obtained in Example 8, an additional study was undertaken to test the safety and efficacy of the method of the present invention using a larger group of subjects. In this study, a group of subjects were selected and randomly separated into three test groups to test the safety and efficacy of using hyaluronidase and a glyceraldehyde solution for treating subjects with sub-optimal visual acuity. Groups one and two received an intrastromal injection of hyaluronidase (50 and 500 IU, respectively), while group three received a control injection of saline.
# (§2) Following a two week incubation period after the injection, the three groups were fitted with corrective lenses to optimize the visual acuity of the subjects. The corrective lenses were left in place for a period of time sufficient to alter the shape of the subjects' eyes so as to achieve an optimal visual acuity. This period of time was generally 2 days in length. Once an acceptable visual acuity was achieved, the subjects in the three groups received a topical 3% glyceraldehyde solution in the form of ophthalmic drops four times per day while wearing the corrective lenses. The glyceraldehyde treatment was generally administered for one month. Lens wear occurred from 8 to 12 hours during the day.
# (§3) At the end of the treatment period both the lens wear and the glyceraldehyde solution administration was terminated. The general health and visual acuity of the subjects was monitored from 3 to 5 months following treatment termination.
# Before beginning the experimental protocol, test subjects were examined initially to establish a baseline from which the future results of the treatment were compared. For each subject a medical history was taken and a detailed examination of the eyes was also performed. The eyes of each subject were tested to determine: refraction cell count, intraocular pressure (IOP), pachymetry, corneal topography and corneal elasticity. A slit-lamp examination was also performed to establish the health of the eye. Also, the presence of any general or ocular discomfort of the subjects was noted.
# Following the establishment of a baseline reading, group 1 subjects were administered a single intrastromal injection of 50 IU hyaluronidase prior to the orthokeratology treatment. Following 14 days of incubation, the subjects were fitted with corrective contact lenses for overnight wear. Subjects wore the corrective lenses night and day for a period of two (2) to seven (7) days or until visual 20/20 visual acuity was achieved. Subjects achieving an acceptable visual acuity (approximately 20/20) received an application of the topical 3% glyceraldehyde solution ophthalmic drops four times per day (8:00, 12:00, 16:00, and 20:00) for a period of 1 month in conjunction with daytime lens wear for stabilization. Lens wear lasted for 8 to 12 hours per day. The subjects were examined periodically during the glyceraldehyde treatment to monitor changes in the health of the treated eyes.
# (§4) At the end of the treatment period, the stabilizing lens were removed and the administration of the 3% glyceraldehyde solution was terminated. Following termination of the treatment, the subjects were examined immediately after treatment was terminated, once a week for the first four weeks after termination, and then monthly to measure changes in the visual acuity of the treated eyes. The health of the eye was also monitored. Sequelae characterized by the appearance or worsening of serious ocular symptoms or slit-lamp findings observed during these examinations was assessed. The proportions of subjects with such findings were analyzed.
# [2] = system: cornea; assay: Corneal elasticity, recovery from indentation by spherical glass indentor (Example 7); format: in vivo, human; details: eyes injected with hyaluronidase solution
# Experimental: A precision spherical glass indentor was used to contact the corneal surface of subjects treated with the methods of the present invention to measure changes in corneal elasticity. The method used involved the application of the indentor, in the form of a small spherical ball to gently deflect into a test cornea to establish an initial deflection value. Measurements were taken by using an interferometer to view the deflection. Following this application, the relaxation period was measured by observing the change in the impression made by the indentor.
# The indentation range of movement was characterized using a precision linear variable differential transducer (LVDT) device that measured the linear travel of a stage carrying the indentor probe. The average travel distance of the probe was established at approximately 700 micrometers. The contact depth of the indentor probe was measured by evaluating the corneal surface immediately after indentation and measuring the local height values caused by the probe contact. This value was measured to range from 266 to 300 micrometers.
# A digital timer was used to mark the beginning and ending times during observation. Changes in the impression were readily observed during this period. The final end point was considered to be when the local fringe disturbance was recovered blending with the undisturbed neighboring fringes. […] However, given the time scales involved, the value of this error is considered to be small.
# The method of inducing corneal inflection involved first contacting the test corneal with the indentor. After the initial contact with the cornea was established, the probe was moved forward into the cornea to a predetermined distance. Seven hundred microns was used to achieve adequate deflection. Topography was taken immediately after the deflection to record the impression made in the cornea. Observations of the cornea were then made at one (1) minute intervals to note the change in the impression made. […] Another topography was done after five (5) minutes to record the final condition of the impression. […]
# [3] = system: eyes of myopic human subjects; assay: Mild myopia study, group II: 500 IU hyaluronidase, corrective lenses, 3% glyceraldehyde (Example 9); format: in vivo; details: 500 IU hyaluronidase and corrective lenses
# Excerpt: as §1, §2, §3
# The subjects of group II were treated as those in group I in preparation for their participation in the study reported here. Before beginning the experimental protocol, test subjects were examined initially to establish a baseline from which the future results of the treatment were compared.
# Following the establishment of a baseline reading, group II subjects were fitted with contact lenses and wore the corrective lenses at night for a period of two (2) to seven (7) days or until an acceptable visual acuity (approximately 20/20) was achieved. Group II test subjects received 500 IU of hyaluronidase by injection as compared to the 50 IU of group I. Two groups of subjects received 500 IU of hyaluronidase. The results obtained from the first group are shown in Table IIIA and the results from the second group are shown in Table IIIA and are identified in the table by the notation Gr. VI. There were no meaningful differences in the treatment protocols between these two groups. Subjects achieving an acceptable visual acuity received the topical 3% glyceraldehyde solution in the form of ophthalmic drops four times per day (08:00, 12:00, 16:00, and 20:00) for a period of 1 month in conjunction with daytime lens wear for stabilization. During this period, lens were occurred for approximately 8-12 hours per day and there was no nocturnal lens wear.
# The subjects were examined periodically during the glyceraldehyde treatment to monitor changes in the health of the treated eyes.
# as §4, with “examinations were” for “examinations was”
# [4] = system: eye of myopic human patient; assay: Safety and efficacy of hyaluronidase and topical 3% glyceraldehyde solution, myopia in a human patient (Example 8); format: in vivo; details: one subject, baseline UVA 20/300; 50 IU hyaluronidase, 7 days incubation, 7 days corrective lens wear, before drops
# Experimental: In this study, a single subject was selected to test the safety and efficacy of using hyaluronidase and a glyceraldehyde solution to treat sub-optimal visual acuity. In this study, the subject was first medically evaluated and a baseline was established. A medical history of the subject was taken and a detailed examination of the subject's eyes was also performed. The subject's eyes were tested to determine: refraction, cell count, intraocular pressure (IOP), pachymetry, corneal topography and corneal elasticity. A slit-lamp examination was also performed to establish the health of the eyes. Also, the presence of any general or ocular discomfort of the subject was noted.
# Following the establishment of a baseline reading (UVA 20/300), the subject was administered a single intrastromal injection of 50 IU hyaluronidase prior to the orthokeratology treatment. Following 7 days of incubation of the subject's eyes with the injected material, the subject was fitted with corrective contact lenses for overnight wear. The subject wore the corrective lenses day and night for a period of seven (7) days. At this point the subject's visual acuity was 20/15. […] The visual acuity of the subject was then monitored for 196 days to determine the effect of the treatment on the unaided visual acuity of the subject;
substance,measurement,setting,value
hyaluronidase,visual acuity achieved by initial orthokeratological treatment,"[1]; all subjects except ARR/001 and JLV/015, before drops",20/20
same,visual acuity achieved by initial orthokeratological treatment,"[1]; subject 001, before glyceraldehyde drops",20/25
same,visual acuity achieved by initial orthokeratological treatment,"[1]; subject 015, before glyceraldehyde drops",20/40
same,change in corneal elasticity vs baseline,[2],significant reduction in corneal elasticity
same,visual acuity achieved before glyceraldehyde drops,[3]; subject 013 (Table IIIA),20/40
same,visual acuity achieved before glyceraldehyde drops,[3]; subject 104 (Table IIIB),20/50
same,visual acuity,[4],20/15
